We go through 26 compounds from patent US20240150345A1, “GCN2 MODULATING COMPOUNDS AND USES THEREOF” (HiberCell, Inc., priority 2021, published 2024).

The target in this assay is T1, GCN2 (Homo sapiens, UniProt Q9P2K8).
T1 construct: purchased Carma Biosciences (so in the source)
T1 sequence (Q9P2K8 whole entry): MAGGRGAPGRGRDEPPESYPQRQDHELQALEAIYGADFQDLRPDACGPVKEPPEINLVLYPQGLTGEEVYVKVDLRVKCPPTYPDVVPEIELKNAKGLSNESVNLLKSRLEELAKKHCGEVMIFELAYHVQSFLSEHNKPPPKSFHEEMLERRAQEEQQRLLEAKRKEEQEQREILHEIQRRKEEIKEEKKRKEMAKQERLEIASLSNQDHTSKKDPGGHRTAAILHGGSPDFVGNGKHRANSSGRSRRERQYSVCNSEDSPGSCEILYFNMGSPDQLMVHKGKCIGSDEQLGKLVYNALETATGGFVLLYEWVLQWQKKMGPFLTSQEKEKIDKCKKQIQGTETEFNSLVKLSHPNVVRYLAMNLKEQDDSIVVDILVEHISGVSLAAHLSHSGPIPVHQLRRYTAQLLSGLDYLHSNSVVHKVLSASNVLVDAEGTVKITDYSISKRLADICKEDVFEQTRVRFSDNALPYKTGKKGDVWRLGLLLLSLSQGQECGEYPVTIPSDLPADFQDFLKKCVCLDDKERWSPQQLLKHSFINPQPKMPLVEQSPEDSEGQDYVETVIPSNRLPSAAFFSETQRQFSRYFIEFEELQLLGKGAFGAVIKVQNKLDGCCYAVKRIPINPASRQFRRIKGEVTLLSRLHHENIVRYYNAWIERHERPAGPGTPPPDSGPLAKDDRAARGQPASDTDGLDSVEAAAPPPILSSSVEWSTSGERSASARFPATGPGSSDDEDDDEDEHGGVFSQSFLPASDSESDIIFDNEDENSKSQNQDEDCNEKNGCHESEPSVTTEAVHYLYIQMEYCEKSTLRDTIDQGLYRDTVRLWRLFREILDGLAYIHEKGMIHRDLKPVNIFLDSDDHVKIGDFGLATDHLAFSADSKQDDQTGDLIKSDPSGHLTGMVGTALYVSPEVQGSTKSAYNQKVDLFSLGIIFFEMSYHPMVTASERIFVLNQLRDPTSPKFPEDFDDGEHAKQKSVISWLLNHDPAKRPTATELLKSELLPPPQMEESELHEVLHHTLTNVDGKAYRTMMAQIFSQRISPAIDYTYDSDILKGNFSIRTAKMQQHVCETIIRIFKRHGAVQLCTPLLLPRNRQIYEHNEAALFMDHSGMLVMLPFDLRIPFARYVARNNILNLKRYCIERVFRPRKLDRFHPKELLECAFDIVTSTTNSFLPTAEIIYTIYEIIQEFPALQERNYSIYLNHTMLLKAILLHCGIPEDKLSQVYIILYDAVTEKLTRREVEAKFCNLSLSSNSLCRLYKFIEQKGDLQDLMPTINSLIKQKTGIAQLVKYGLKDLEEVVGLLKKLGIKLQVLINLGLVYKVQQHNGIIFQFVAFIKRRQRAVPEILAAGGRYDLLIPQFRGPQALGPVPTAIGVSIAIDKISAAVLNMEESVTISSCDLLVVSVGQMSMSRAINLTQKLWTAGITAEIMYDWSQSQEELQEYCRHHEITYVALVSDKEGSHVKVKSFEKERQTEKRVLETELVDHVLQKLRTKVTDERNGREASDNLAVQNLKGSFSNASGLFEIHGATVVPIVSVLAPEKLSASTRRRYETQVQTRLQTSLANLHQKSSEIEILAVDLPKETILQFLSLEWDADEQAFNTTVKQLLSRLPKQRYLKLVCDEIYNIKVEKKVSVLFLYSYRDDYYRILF
The assay is described as follows: TR-FRET biochemical assay for inhibition of GCN2 activity. The conditions noted are these: 2 nM GCN2, 100 nM GFP-eIF2α, 150 μM ATP, 1.5 hours at 25° C. As for the experimental part: Exemplary compounds from the above Examples were tested for ability to inhibit GCN2 activity using a time resolved fluorescence energy transfer (TR-FRET) assay. Assay procedures and results are described below for Examples 12-105.
GCN2 protein was obtained from Carma Biosciences (cat #05-153). The protein was diluted in assay buffer (ThermoFisher Scientific, #PV6135), 2 mM dithiothreitol (DTT), to obtain a final concentration of 2 nM and 5 μL was plated in a 384-well white assay plate. Test compounds were serially diluted to 11 concentrations by 3-fold dilution in DMS0 and 10 nL of stock was plated into 384 well white assay plate. DMS0 was used as a vehicle control. GFP-eIF2α protein was obtained from ThermoFisher (cat #PV4809). The protein was diluted in assay buffer to a 2× concentration of 200 nM along with 300 μM ATP (final concentration of 100 nM GFP-eIF2α and 150 μM ATP) in the presence of 2 mM DTT and a […] was added to each well containing the GCN2 protein and test compound. The plate was incubated in the dark at 25° C. for 1.5 hours, shaking at 1250 rpm. Tb-anti P-eIF2α (ThermoFisher cat #PV4815) was diluted to a to a concentration of 1 nM in TR-FRET Dilution Buffer (ThermoFisher cat #PV3574). 10 μL of the Tb-anti P-eIF2a solution was added to the TR-FRET reaction. The plate was incubated in the dark for 2 h at 25° C. shaking at 600 rpm. The FRET signal from the plate was read on a Envision (PerkinElmer) plate reader: • Label 1: Excitation: 340 nm, bandwidth 30 nm; Emission: 495 nm, bandwidth 10 nm. Lag time: 100 μsec. Integration time: 400 μsec. Flashes: 30. • Label 2: Excitation: 340 nm, bandwidth 30 nm; Emission: 520 nm, bandwidth 25 nm. Lag time: 100 μsec. Integration time: 400 μsec. Flashes: 30
The data were analyzed using GraphPad Prism employing a 4-parameter sigmoidal curve fit.
Take `COc1ncc(F)cc1S(=O)(=O)Nc1ccc(F)c(COc2cnn3cnc(C(F)(F)F)c3c2)c1F` [Compound 83, N-[2,4-difluoro-3-([[5-(trifluoromethyl)imidazo[1,5-b]pyridazin-3-yl]oxy]methyl)phenyl]-5-fluoro-2-methoxypyridine-3-sulfonamide]: the IC50 was under 50 nM.

Consider `COc1ncc(F)cc1S(=O)(=O)Nc1ccc(F)c(COc2cnc3[nH]nc(CC(F)(F)F)c3c2)c1F` [Compound 80, N-[2,4-difluoro-3-([[3-(2,2,2-trifluoroethyl)-1H-pyrazolo[3,4-b]pyridin-5-yl]oxy]methyl)phenyl]-5-fluoro-2-methoxypyridine-3-sulfonamide], for which the IC50 was under 50 nM.

In turn, `COc1ncc(Cl)cc1S(=O)(=O)Nc1ccnc(COc2cnc3[nH]nc(C)c3c2)c1F` [Compound 64, 5-chloro-N-[3-fluoro-2-[([3-methyl-1H-pyrazolo[3,4-b]pyridin-5-yl]oxy)methyl]pyridin-4-yl]-2-methoxypyridine-3-sulfonamide] had a concentration for half-maximal inhibition (IC50) of under 50 nM.

Consider `COc1ncc(F)cc1S(=O)(=O)Nc1ccc(F)c(COc2cnc3c(c2)C2(CC2)C(=O)N3)c1F` [Compound 72, N-[2,4-difluoro-3-([2-oxo-1H-spiro[cyclopropane-1,3-pyrrolo[2,3-b]pyridin]-5-yloxy]methyl)phenyl]-5-fluoro-2-methoxypyridine-3-sulfonamide], for which the IC50 is under 50 nM.

Regarding `COc1ncc(Cl)cc1S(=O)(=O)Nc1ccc(F)c(CNc2cnc3[nH]ncc3c2)c1F` [Compound 3, 5-chloro-N-[2,4-difluoro-3-([1H-pyrazolo[3,4-b]pyridin-5-ylamino]methyl)phenyl]-2-methoxypyridine-3-sulfonamide], the IC50 was 50 to 500 nM.

For `COc1ncc(C#N)cc1S(=O)(=O)Nc1ccc(F)c(OCc2cnc3[nH]nc(C)c3c2)c1F` [Compound 48, 5-cyano-N-(2,4-difluoro-3-((3-methyl-1H-pyrazolo[3,4-b]pyridin-5-yl)methoxy)phenyl)-2-methoxypyridine-3-sulfonamide], the IC50 lay in the range of 50 to 500 nM.

Compound `Cc1ncc(F)cc1S(=O)(=O)Nc1ccc(F)c(COc2cnc3[nH]nc(C(C)C)c3c2)c1F` [Compound 54, N-[2,4-difluoro-3-[([3-isopropyl-1H-pyrazolo[3,4-b]pyridin-5-yl]oxy)methyl]phenyl]-5-fluoro-2-methylpyridine-3-sulfonamide] came in with an IC50 of under 50 nM.

As for `Cc1ncc(F)cc1S(=O)(=O)Nc1ccc(F)c(NCc2cnc3[nH]nc(C)c3c2)c1F` [Compound 59, N-[2,4-difluoro-3-[([3-methyl-1H-pyrazolo[3,4-b]pyridin-5-yl]methyl)amino]phenyl]-5-fluoro-2-methylpyridine-3-sulfonamide], the IC50 lay in the range of 50 to 500 nM.

`COc1ncc(F)cc1S(=O)(=O)Nc1ccc(F)c(COc2cnc3[nH]c(=O)n(C)c3c2)c1F` [Compound 71, N-[2,4-difluoro-3-[([1-methyl-2-oxo-3H-imidazo[4,5-b]pyridin-6-yl]oxy)methyl]phenyl]-5-fluoro-2-methoxypyridine-3-sulfonamide]: the IC50 was under 50 nM.

Compound `COc1ncc(C#N)cc1S(=O)(=O)Nc1ccc(F)c(COc2cnc3[nH]ncc3c2)c1F` [Compound 26, 5-cyano-N-[2,4-difluoro-3-([1H-pyrazolo[3,4-b]pyridin-5-yloxy]methyl)phenyl]-2-methoxypyridine-3-sulfonamide] returned an IC50 of under 50 nM.

Compound `COc1ncc(F)cc1S(=O)(=O)Nc1ccc(F)c(COc2cnc3[nH]ncc3c2C#N)c1F` [Compound 27, N-[3-[([4-cyano-1H-pyrazolo[3,4-b]pyridin-5-yl]oxy)methyl]-2,4-difluorophenyl]-5-fluoro-2-methoxypyridine-3-sulfonamide] returned a half-inhibitory concentration (IC50) of under 50 nM.

In turn, `COc1ncc(F)cc1S(=O)(=O)Nc1ccc(F)c(NCc2cnc3[nH]nc(C)c3c2)c1F` [Compound 57, N-[2,4-difluoro-3-[([3-methyl-1H-pyrazolo[3,4-b]pyridin-5-yl]methyl)amino]phenyl]-5-fluoro-2-methoxypyridine-3-sulfonamide] yielded a concentration for half-maximal inhibition (IC50) of 50 to 500 nM.

On to `COc1ncc(Cl)cc1S(=O)(=O)Nc1ccc(F)c(COc2cnc3[nH]nc(C)c3c2)n1` [Compound 68, 5-chloro-N-[5-fluoro-6-[([3-methyl-1H-pyrazolo[3,4-b]pyridin-5-yl]oxy)methyl]pyridin-2-yl]-2-methoxypyridine-3-sulfonamide], for which the IC50 fell in the range of 50 to 500 nM.

Regarding `COc1ncc(F)cc1S(=O)(=O)Nc1ncc(F)c(COc2cnc3[nH]nc(C)c3c2)c1Cl` [Compound 66, N-[3-chloro-5-fluoro-4-[([3-methyl-1H-pyrazolo[3,4-b]pyridin-5-yl]oxy)methyl]pyridin-2-yl]-5-fluoro-2-methoxypyridine-3-sulfonamide], the IC50 was under 50 nM.

Compound `COc1ncc(F)cc1S(=O)(=O)Nc1ccc(F)c(COc2cnc3[nH]nc(C)c3c2C2CCN(C)CC2)c1F` [Compound 93, N-(2,4-difluoro-3-(((3-methyl-4-(1-methylpiperidin-4-yl)-1H-pyrazolo[3,4-b]pyridin-5-yl)oxy)methyl)phenyl)-5-fluoro-2-methoxypyridine-3-sulfonamide] gave a half-inhibitory concentration (IC50) of over 1000 nM.

As for `COc1ncc(Cl)cc1S(=O)(=O)Nc1ccc(F)c(CCc2cnc3[nH]ccc3c2)c1F` [Compound 12, 5-chloro-N-[2,4-difluoro-3-(2-[1H-pyrrolo[2,3-b]pyridin-5-yl]ethyl)phenyl]-2-methoxypyridine-3-sulfonamide], the half-maximal inhibitory concentration (IC50) was under 50 nM.

In turn, `COc1ncc(F)cc1S(=O)(=O)Nc1ccc(F)c(COc2cnc3[nH]ncc3c2C)c1F` [Compound 20, N-[2,4-difluoro-3-[([4-methyl-1H-pyrazolo[3,4-b]pyridin-5-yl]oxy)methyl]phenyl]-5-fluoro-2-methoxypyridine-3-sulfonamide] yielded a 50% inhibitory concentration (IC50) of 50 to 500 nM.

Compound `COc1ncc(F)cc1S(=O)(=O)Nc1ccc(F)c(COc2cnc3[nH]nc(CCF)c3c2)c1F` [Compound 76, N-[2,4-difluoro-3-([[3-(2-fluoroethyl)-1H-pyrazolo[3,4-b]pyridin-5-yl]oxy]methyl)phenyl]-5-fluoro-2-methoxypyridine-3-sulfonamide] showed a concentration for half-maximal inhibition (IC50) of under 50 nM.

In turn, `COc1ncc(F)cc1S(=O)(=O)Nc1ccc(Cl)c(COc2cnc3[nH]nc(C)c3c2)c1F` [Compound 78, N-(4-chloro-2-fluoro-3-(((3-methyl-1H-pyrazolo[3,4-b]pyridin-5-yl)oxy)methyl)phenyl)-5-fluoro-2-methoxypyridine-3-sulfonamide] came in with an IC50 of under 50 nM.

In turn, `COc1ncc(F)cc1S(=O)(=O)Nc1ccc(F)c(COc2cnc3[nH]nc(-c4ccccc4)c3c2)c1F` [Compound 84, N-[2,4-difluoro-3-[([3-phenyl-1H-pyrazolo[3,4-b]pyridin-5-yl]oxy)methyl]phenyl]-5-fluoro-2-methoxypyridine-3-sulfonamide] had a 50% inhibitory concentration (IC50) of under 50 nM.

`COc1ncc(F)cc1S(=O)(=O)Nc1ccc(F)c(COc2cnc3[nH]nc(C)c3c2)c1C#N` [Compound 62, N-[2-cyano-4-fluoro-3-[([3-methyl-1H-pyrazolo[3,4-b]pyridin-5-yl]oxy)methyl]phenyl]-5-fluoro-2-methoxypyridine-3-sulfonamide] returned an IC50 of 50 to 500 nM.

`Cc1ncc(F)cc1S(=O)(=O)Nc1ccc(F)c(COc2cnc3[nH]nc(C)c3c2)c1Cl` [Compound 74, N-[2-chloro-4-fluoro-3-[([3-methyl-1H-pyrazolo[3,4-b]pyridin-5-yl]oxy)methyl]phenyl]-5-fluoro-2-methylpyridine-3-sulfonamide] displayed a half-maximal inhibitory concentration (IC50) of under 50 nM.

Compound `COc1ncc(F)cc1S(=O)(=O)Nc1ccc(F)c(COc2cnc3[nH]nc(C(C)(F)F)c3c2)c1F` [Compound 81, N-[3-([[3-(1,1-difluoroethyl)-1H-pyrazolo[3,4-b]pyridin-5-yl]oxy]methyl)-2,4-difluorophenyl]-5-fluoro-2-methoxypyridine-3-sulfonamide] registered a concentration for half-maximal inhibition (IC50) of under 50 nM.

`COc1ncc(F)cc1S(=O)(=O)Nc1ccc(F)c(CCc2cnc3cnn(C(C)C)c3c2)c1F` [Compound 36, N-[2,4-difluoro-3-(2-[1-isopropylpyrazolo[4,3-b]pyridin-6-yl]ethyl)phenyl]-5-fluoro-2-methoxypyridine-3-sulfonamide] showed an IC50 of 50 to 500 nM.

Compound `COc1ncc(Cl)cc1S(=O)(=O)Nc1ccc(F)c(COc2cnc3[nH]ncc3c2OC)c1F` [Compound 24, 5-chloro-N-[2,4-difluoro-3-[([4-methoxy-1H-pyrazolo[3,4-b]pyridin-5-yl]oxy)methyl]phenyl]-2-methoxypyridine-3-sulfonamide] came in with an IC50 of under 50 nM.

`CCn1ncc2ncc(CCc3c(F)ccc(NS(=O)(=O)c4cc(Cl)cnc4OC)c3F)cc21` [Compound 33, 5-chloro-N-[3-(2-[1-ethylpyrazolo[4,3-b]pyridin-6-yl]ethyl)-2,4-difluorophenyl]-2-methoxypyridine-3-sulfonamide] displayed an IC50 of under 50 nM.
